Laboratory results: patent US20250263385A1 (SANOFI, priority 2022, published 2025)

Test system: Human erythropoietin (hEPO) levels in sera
Experiment: Delivery of hEPO mRNA by intramuscular administration of lipid nanoparticles; serum hEPO by ELISA
Type: in vivo, Mouse (female BALB/cJ)
Conditions: single IM injection of 0.1 μg hEPO mRNA LNP in 30 μL into right gastrocnemius, female BALB/cJ mice, cationic lipids in formulation 1, MC3 in formulation 2; for hEPO 6 Hr (ng/mL) Mean: 6 hours post dose; for hEPO 24 Hr (ng/mL) Mean: 24 hours post dose
Experimental: Lipid nanoparticle formulations of Table 3 were prepared by Process A. All of the lipid nanoparticle formulations comprised hEPO mRNA and the different lipids (Cationic Lipid: DMG-PEG2000: Cholesterol: DOPE/DSPC) in the mol % ratios specified in Table 3.
The cationic lipids of the present invention were evaluated with lipid nanoparticle formulation 1. MC3 was evaluated with lipid nanoparticle formulation 2, which is a typical MC3 formulation.
In summary, lipid screening studies were conducted with female BALB/cJ mice 6-8 weeks of age. Mice were dosed with 0.1 μg in 30 μL of LNPs by a single intramuscular (IM) injection into the gastrocnemius leg muscle. Blood samples were taken 6 and 24 hours post injection and hEPO levels were measured in the blood serum of the mice using an ELISA assay according to the manufacture's protocol. WO2022/099003 A1 also describes an in vivo assay for intramuscular administration (e.g. on page 46, paragraph [00206]).
Treatment Regimen: On Day 1, animals from Groups 1-13 were dosed via intramuscular injection while under light isoflurane anesthesia according to the study design table above. Animals in Groups 1-13 were injected with EPO mRNA LNPs in the right leg only. Group 1 animals received MC3 control. The cationic lipid MC3 is the current gold standard for in vivo delivery of e.g. siRNA (see WO2010/144740).
Interim Sample Collections: Interim whole blood (^˜50 μL) was collected by tail snip or saphenous vein at 6 and 24 hours post dose administration (±5%). Blood samples were collected into serum separator tubes, allowed to clot at room temperature for at least 10 minutes, centrifuged at ambient temperature at minimum 1000 g for 10 minutes and the serum was extracted. All serum samples were stored at nominally −70° C. until analysis hEPO by the Testing Facility. The results of the EPO analysis were included in the Data Submission.
Terminal Blood Collections: Whole blood was collected via cardiac puncture into serum separator tube, allowed to clot at room temperature for at least 10 minutes, centrifuged at ambient temperature at minimum 1000 g for 10 minutes and the serum was extracted. Serum samples were stored at nominally −70° C. until analyzed for hEPO by the Test Facility.
ELISA Assay: Human erythropoietin (hEPO) levels in sera samples were determined by ELISA kit (R&D systems, Cat #DEP-00) according to the manufactory instruction and the results were included in the Data Submission. The “shaker” protocol was used. The serum samples were diluted between 1:40 and 1:100.

| SMILES | hEPO 6 Hr (ng/mL) Mean [ng/mL] | hEPO 24 Hr (ng/mL) Mean [ng/mL] |
| --- | --- | --- |
| CCCCOC(=O)CCCCCCC(O)CN(CCCSSCCN1CCN(CCOC(=O)CCCCN(CC(O)CCCCCCC(=O)OCC(CC)CC)CC(O)CCCCCCC(=O)OCC(CC)CC)CC1)CC(O)CCCCCCC(=O)OCCCC (centres unmarked) [Compound 6, Dibutyl 9,9′-((3-((2-(4-(2-((5-(bis(9-(2-ethylbutoxy)-2-hydroxy-9-oxononyl)amino)-pentanoyl)oxy)ethyl)piperazin-1-yl)ethyl)disulfaneyl)propyl)azanediyl)bis(8-hydroxynonanoate)] | 8.72 | 8.90 |
| CCCCOC(=O)CCCCCCC(O)CN(CCCCSSCCN1CCN(CCOC(=O)CCCCN(CC(O)CCCCCCC(=O)OCC(CC)CC)CC(O)CCCCCCC(=O)OCC(CC)CC)CC1)CC(O)CCCCCCC(=O)OCCCC (centres unmarked) [Compound 12] | 8.06 | 4.86 |
| CCC(CC)COC(=O)CCCCCCC(O)CN(CCCC(=O)OCCN1CCN(CCSSCCCN(CC(O)CCCCCCC(=O)OCCC(C)C)CC(O)CCCCCCC(=O)OCCC(C)C)CC1)CC(O)CCCCCCC(=O)OCC(CC)CC (centres unmarked) [Compound 29, Bis(2-ethylbutyl) 9,9′-((4-(2-(4-(2-((3-(bis(2-hydroxy-9-(isopentyloxy)-9-oxononyl)-amino)propyl)disulfaneyl)ethyl)piperazin-1-yl)ethoxy)-4-oxobutyl)azanediyl)bis(8-hydroxynonanoate)] | 10.01 | 4.93 |
| CCCCOC(=O)CCCCCCC(O)CN(CCCC(=O)OCCN1CCN(CCSSCCCN(CC(O)CCCCCCC(=O)OCC(CC)CC)CC(O)CCCCCCC(=O)OCC(CC)CC)CC1)CC(O)CCCCCCC(=O)OCCCC (centres unmarked) [Compound 42, Dibutyl 9,9′-((5-(2-(4-(2-((4-(bis(9-(2-ethylbutoxy)-2-hydroxy-9-oxononyl)amino)propyl)disulfaneyl)ethyl)piperazin-1-yl)ethoxy)-4-oxobutyl)azanediyl)bis(8-hydroxynonanoate)] | 9.07 | 3.06 |
| CCC(CC)COC(=O)CCCCCCC(O)CN(CCCSSCCN1CCN(CCOC(=O)CCCN(CC(O)CCCCC(=O)OCCC(C)C)CC(O)CCCCC(=O)OCCC(C)C)CC1)CC(O)CCCCCCC(=O)OCC(CC)CC (centres unmarked) [Compound 45, Bis(2-ethylbutyl) 9,9′-((3-((2-(4-(2-((4-(bis(2-hydroxy-7-(isopentyloxy)-7-oxoheptyl)amino)-butanoyl)oxy)ethyl)piperazin-1-yl)ethyl)disulfaneyl)propyl)azanediyl)bis(8-hydroxynonanoate)] | 8.33 | 3.99 |
| CCC(CC)COC(=O)CCCCCCC(O)CN(CCCSSCCN1CCN(CCOC(=O)CCCN(CC(O)CCCC(=O)OC(CC)CC)CC(O)CCCC(=O)OC(CC)CC)CC1)CC(O)CCCCCCC(=O)OCC(CC)CC (centres unmarked) [Compound 46, Bis(2-ethylbutyl) 9,9′-((3-((2-(4-(2-((4-(bis(2-hydroxy-6-oxo-6-(pentan-3-yloxy)hexyl)-amino)butanoyl)oxy)ethyl)piperazin-1-yl)ethyl)disulfaneyl)propyl)azanediyl)bis(8-hydroxynonanoate)] | 12.38 | 5.78 |
| CCC(CC)COC(=O)CCCCCCC(O)CN(CCCC(=O)OCCN1CCN(CCSSCCCCN(CC(O)CCCCC(=O)OCC(CC)CC)CC(O)CCCCC(=O)OCC(CC)CC)CC1)CC(O)CCCCCCC(=O)OCC(CC)CC (centres unmarked) [Compound 50, Bis(2-ethylbutyl) 9,9′-((4-(2-(4-(2-((4-(bis(7-(2-ethylbutoxy)-2-hydroxy-7-oxoheptyl)amino)-butyl)disulfaneyl)ethyl)piperazin-1-yl)ethoxy)-4-oxobutyl)azanediyl)bis(8-hydroxynonanoate)] | 14.94 | 8.87 |
| CCC(CC)COC(=O)CCCCCCC(O)CN(CCCCC(=O)OCCN1CCN(CCSSCCCCN(CC(O)CCCCC(=O)OCC(CC)CC)CC(O)CCCCC(=O)OCC(CC)CC)CC1)CC(O)CCCCCCC(=O)OCC(CC)CC (centres unmarked) [Compound 51, Bis(2-ethylbutyl) 9,9′-((5-(2-(4-(2-((4-(bis(7-(2-ethylbutoxy)-2-hydroxy-7-oxoheptyl)amino)-butyl)disulfaneyl)ethyl)piperazin-1-yl)ethoxy)-5-oxopentyl)azanediyl)bis(8-hydroxynonanoate)] | 16.39 | 9.03 |
| CCCCOC(=O)CCCCCCC(O)CN(CCCCC(=O)OCCN1CCN(CCSSCCCCN(CC(O)CCCCCCC(=O)OCC(CC)CC)CC(O)CCCCCCC(=O)OCC(CC)CC)CC1)CC(O)CCCCCCC(=O)OCCCC (centres unmarked) [Compound 53, Dibutyl 9,9′-((5-(2-(4-(2-((4-(bis(9-(2-ethylbutoxy)-2-hydroxy-9-oxononyl)amino)-butyl)disulfaneyl)ethyl)piperazin-1-yl)ethoxy)-5-oxopentyl)azanediyl)bis(8-hydroxynonanoate)] | 9.07 | 4.66 |
| CCC(CC)COC(=O)CCCCCCC(O)CN(CCCCSSCCN1CCN(CCOC(=O)CCCN(CC(O)CCCCC(=O)OCC(CC)CC)CC(O)CCCCC(=O)OCC(CC)CC)CC1)CC(O)CCCCCCC(=O)OCC(CC)CC (centres unmarked) [Compound 57, Bis(2-ethylbutyl) 9,9′-((4-((2-(4-(2-((4-(bis(7-(2-ethylbutoxy)-2-hydroxy-7-oxoheptyl)amino)butanoyl)oxy)ethyl)piperazin-1-yl)ethyl)disulfaneyl)butyl)azanediyl)bis(8-hydroxynonanoate)] | 13.33 | 8.19 |
| CCCCOC(=O)CCCCCCC(O)CN(CCCCC(=O)OCCN1CCN(CCSSCCCN(CC(O)CCCCC(=O)OC(C)C)CC(O)CCCCC(=O)OC(C)C)CC1)CC(O)CCCCCCC(=O)OCCCC (centres unmarked) [Compound 78] | 7.05 | 3.30 |
| CCC(CC)COC(=O)CCCCC(O)CN(CCCSSCCN1CCN(CCOC(=O)CCCN(CC(O)CCCCC(=O)OCC(CC)CC)CC(O)CCCCC(=O)OCC(CC)CC)CC1)CC(O)CCCCC(=O)OCC(CC)CC (centres unmarked) [Compound 92, Bis(2-ethylbutyl) 7,7′-((3-((2-(4-(2-((4-(bis(7-(2-ethylbutoxy)-2-hydroxy-7-oxoheptyl)amino)butanoyl)oxy)ethyl)piperazin-1-yl)ethyl)disulfaneyl)propyl)azanediyl)bis(6-hydroxyheptanoate)] | 13.11 | 5.75 |
| CCCCC/C=C\C/C=C\CCCCCCCCC(CCCCCCCC/C=C\C/C=C\CCCCC)OC(=O)CCCN(C)C [MC3, reference compound] | 3.94 | 2.44 |
